Reference: PubChem BioAssay (NCI)
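Values below derive from 48-hour exposures of cells grown in 96-well plates, with endpoints linearly interpolated between the two concentrations bracketing the appropriate inhibition level. At the GI50, growth is halved. The concentration for full growth arrest is given as TGI.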

Experiments:
Experiment in all cases: inhibition of tumour cell growth, NCI panel, 48 h
SR leukemia = system: SR leukemia
BT-549 breast = system: BT-549 breast
A549 NSCLC = system: A549 NSCLC
HT29 colon = system: HT29 colon
UO-31 renal = system: UO-31 renal
SK-MEL-2 melanoma = system: SK-MEL-2 melanoma
SK-MEL-28 melanoma = system: SK-MEL-28 melanoma
SF-539 CNS = system: SF-539 CNS
HS 578T breast = system: HS 578T breast
LOX IMVI melanoma = system: LOX IMVI melanoma
HCC-2998 colon = system: HCC-2998 colon
SN12C renal = system: SN12C renal
DU-145 prostate = system: DU-145 prostate
786-0 renal = system: 786-0 renal
SW-620 colon = system: SW-620 colon
SK-MEL-5 melanoma = system: SK-MEL-5 melanoma
RXF 393 renal = system: RXF 393 renal
SK-OV-3 ovarian = system: SK-OV-3 ovarian
NCI-H522 lung = system: NCI-H522 lung
SNB-75 CNS = system: SNB-75 CNS
NCI-H460 lung = system: NCI-H460 lung
OVCAR-5 ovarian = system: OVCAR-5 ovarian
IGROV1 ovarian = system: IGROV1 ovarian
KM12 colon = system: KM12 colon
HCT-15 colon = system: HCT-15 colon
OVCAR-4 ovarian = system: OVCAR-4 ovarian
NCI/ADR-RES ovarian = system: NCI/ADR-RES ovarian
SNB-19 CNS = system: SNB-19 CNS
MCF7 breast = system: MCF7 breast

## C(=N\Nc1ccc2ccccc2n1)/c1ccccn1
SR leukemia
  GI50: 0.328 µM
BT-549 breast
  GI50: 1.1 µM
  TGI: > 38.9 µM
A549 NSCLC
  GI50: 0.563 µM
  TGI: > 100 µM
HT29 colon
  GI50: 0.536 µM
  TGI: > 40.6 µM
UO-31 renal
  GI50: 0.304 µM
  TGI: 2.66 µM
SK-MEL-2 melanoma
  GI50: 0.511 µM
  TGI: > 100 µM
SK-MEL-28 melanoma
  GI50: 1.96 µM
  TGI: > 100 µM
SF-539 CNS
  GI50: 0.362 µM
  TGI: 6.83 µM
HS 578T breast
  GI50: 2.36 µM
  TGI: > 52.9 µM
LOX IMVI melanoma
  GI50: 0.422 µM
  TGI: 13.8 µM
HCC-2998 colon
  GI50: 0.307 µM
  TGI: 1.14 µM
SN12C renal
  GI50: 0.483 µM
  TGI: > 100 µM
DU-145 prostate
  GI50: 0.374 µM
  TGI: > 37.7 µM
786-0 renal
  GI50: 0.317 µM
SW-620 colon
  GI50: 0.644 µM
  TGI: > 43.3 µM
SK-MEL-5 melanoma
  GI50: 0.694 µM
  TGI: 3.67 µM
RXF 393 renal
  GI50: 0.443 µM
  TGI: > 52 µM
SK-OV-3 ovarian
  GI50: 0.537 µM
  TGI: > 40.5 µM
NCI-H522 lung
  GI50: 0.319 µM
  TGI: 11.8 µM
SNB-75 CNS
  GI50: 1.1 µM
  TGI: 51.2 µM
NCI-H460 lung
  GI50: 0.366 µM
OVCAR-5 ovarian
  GI50: 0.596 µM
  TGI: > 100 µM
IGROV1 ovarian
  GI50: 0.388 µM
  TGI: 8.66 µM
KM12 colon
  GI50: 0.458 µM
  TGI: 16.2 µM
HCT-15 colon
  GI50: 0.377 µM
  TGI: > 100 µM
OVCAR-4 ovarian
  GI50: 0.363 µM
  TGI: > 100 µM
NCI/ADR-RES ovarian
  GI50: 0.345 µM
  TGI: 10.6 µM
SNB-19 CNS
  GI50: 0.921 µM
  TGI: > 100 µM
MCF7 breast
  GI50: 0.44 µM
  TGI: > 100 µM
